Key:
[1] = test system: mitochondrial complex IV; assay: Level of mitochondrial complex IV in IMR90 cells (subunit II antibody, western blotting)
[2] = test system: IMR90 cells; assay: H2O2-induced senescence of methylene blue-treated IMR90 cells; format: cell-based, human; settings: continuous 100 nM; 10 μM H2O2
Description: In another experiment, the effect of hydrogen peroxide (H2O2) on senescence of methylene blue-treated cells was tested. IMR90 cells were seeded at an initial density of 0.5×10^6/dish and grown for two weeks in the presence of methylene blue prior to H2O2 treatment. Thereafter, cells were harvested weekly, counted, and seeded with or without methylene blue and/or 10 μM H2O2. Cells that were treated with hydrogen peroxide without methylene blue treatment had accelerated senescence. The H2O2-induced senescence was prevented when these cells were continuously treated with 100 nM methylene blue.

[3] = rats; injected 1 mg/kg; cited from earlier work
[4] = test system: IMR90 cells; assay: Replicative life span of IMR90 cells (population doubling level)
[5] = 300 mg/day for one year; cited from earlier work
[6] = 65 mg three times a day; cited from earlier work

Compound | effect on complex IV ([1]; 1000 nM, IMR90 cells) | increase in level of complex IV above age-matched controls ([1]; IMR90 cells) | H2O2-induced senescence [2] | brain oxidative metabolism [3] | memory retention [3] | increase in PDL ([4]; IMR90 cells seeded in 5% oxygen) | delay of senescence ([4]; IMR90 cells seeded in air) | optimal concentration for delaying senescence ([4]; IMR90 cells seeded in air) | depression compared with 15 mg/day placebo [5] | management of chronic renal calculous disease [6] | effect on level of complex IV ([1]; IMR90 cells after treatment) | effect on senescence (replicative life span) ([4]; 100 nM, IMR90 cells)
CN(C)c1ccc2nc3ccc(=[N+](C)C)cc-3sc2c1 [methylene blue] | caused removal of complex IV from the mitochondria | approximately 30% | prevented | improved | improved | 10-15 | 25-30 population doublings | 10 to 100 nM | significantly less depressed | useful |  | 
Nc1ccc2nc3ccc(N)cc3[s+]c2c1 [thionine] |  |  |  |  |  |  |  |  |  |  | increase in complex IV | effective

From patent US20060188866A1, “Diaminophenothiazine compositions and uses thereof” (Children's Hospital Oakland Research Institute, priority 2005, published 2006)
